# ChEMBL document CHEMBL1201862, “PubChem BioAssay data set” (2004)
#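 Method: 48-hour compound exposure of cells in 96-well plates, five concentrations, linear interpolation of endpoints. GI50: concentration for 50% inhibition of growth.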 Active and inactive are the calls of the source. Rule as the data show it: active = GI50 up to about 1.1 µM and inactive = higher.
# Tests used:
# Test in all cases: NCI tumour cell line growth inhibition, 48 h
# [1] = test system: 786-0
# [2] = test system: A498
# [3] = test system: A549
# [4] = test system: ACHN
# [5] = test system: BT-549
# [6] = test system: CAKI-1
# [7] = test system: CCRF-CEM
# [8] = test system: COLO 205
# [9] = test system: DU-145
# [10] = test system: EKVX
# [11] = test system: HCC 2998
# [12] = test system: HCT-116
# [13] = test system: HCT-15
# [14] = test system: HL-60
# [15] = test system: HOP-62
# [16] = test system: HOP-92
# [17] = test system: HT-29
# [18] = test system: Hs-578T
# [19] = test system: IGROV-1
# [20] = test system: K562
# [21] = test system: KM12
# [22] = test system: LOX IMVI
# [23] = test system: MCF7
# [24] = test system: MDA-MB-231
# [25] = test system: MDA-MB-435
# [26] = test system: MDA-N
# [27] = test system: MOLT-4
# [28] = test system: Malme-3M
# [29] = test system: NCI-H226
# [30] = test system: NCI-H23
# [31] = test system: NCI-H460
# [32] = test system: NCI-H522
# [33] = test system: NCI/ADR-RES
# [34] = test system: OVCAR-3
# [35] = test system: OVCAR-4
# [36] = test system: OVCAR-5
# [37] = test system: OVCAR-8
# [38] = test system: PC-3
# [39] = test system: RPMI-8226
# [40] = test system: RXF 393
# [41] = test system: SF-268
# [42] = test system: SF-295
# [43] = test system: SF-539
# [44] = test system: SK-MEL-28
# [45] = test system: SK-MEL-2
# [46] = test system: SK-MEL-5
# [47] = test system: SK-OV-3
# [48] = test system: SN12C
# [49] = test system: SNB-75
# [50] = test system: SR
# [51] = test system: SW-620
# [52] = test system: T47D
# [53] = test system: TK-10
# [54] = test system: UACC-257
# [55] = test system: UACC-62
# [56] = test system: UO-31
# [57] = test system: M14
# [58] = test system: SNB-19
# [59] = test system: U-251
smiles,measurement,setting,value
CN(/N=C(\C(=O)O)c1ccccc1)C1=NCCN1,GI50,[1],> 100 µM (inactive)
same,GI50,[2],> 100 µM (inactive)
same,GI50,[3],> 100 µM (inactive)
same,GI50,[4],> 100 µM (inactive)
same,GI50,[5],47.2 µM (inactive)
same,GI50,[6],> 100 µM (inactive)
same,GI50,[7],> 100 µM (inactive)
same,GI50,[8],> 100 µM (inactive)
same,GI50,[9],> 100 µM (inactive)
same,GI50,[10],83.6 µM (inactive)
same,GI50,[11],> 100 µM (inactive)
same,GI50,[12],> 100 µM (inactive)
same,GI50,[13],> 100 µM
same,GI50,[14],> 100 µM (inactive)
same,GI50,[15],> 100 µM (inactive)
same,GI50,[16],> 100 µM (inactive)
same,GI50,[17],> 100 µM (inactive)
same,GI50,[18],> 100 µM (inactive)
same,GI50,[19],54.2 µM (inactive)
same,GI50,[20],> 100 µM (inactive)
same,GI50,[21],> 100 µM (inactive)
same,GI50,[22],> 100 µM (inactive)
same,GI50,[23],> 100 µM (inactive)
same,GI50,[24],> 100 µM (inactive)
same,GI50,[25],> 100 µM (inactive)
same,GI50,[26],> 100 µM (inactive)
same,GI50,[27],> 100 µM (inactive)
same,GI50,[28],> 100 µM (inactive)
same,GI50,[29],> 100 µM (inactive)
same,GI50,[30],> 100 µM (inactive)
same,GI50,[31],> 100 µM (inactive)
same,GI50,[32],> 100 µM (inactive)
same,GI50,[33],> 100 µM (inactive)
same,GI50,[34],> 100 µM (inactive)
same,GI50,[35],> 100 µM (inactive)
same,GI50,[36],> 100 µM (inactive)
same,GI50,[37],> 100 µM (inactive)
same,GI50,[38],> 100 µM (inactive)
same,GI50,[39],> 100 µM (inactive)
same,GI50,[40],> 100 µM (inactive)
same,GI50,[41],> 100 µM (inactive)
same,GI50,[42],> 100 µM (inactive)
same,GI50,[43],> 100 µM (inactive)
same,GI50,[44],> 100 µM (inactive)
same,GI50,[45],> 100 µM (inactive)
same,GI50,[46],> 100 µM (inactive)
same,GI50,[47],> 100 µM (inactive)
same,GI50,[48],> 100 µM (inactive)
same,GI50,[49],> 100 µM (inactive)
same,GI50,[50],> 100 µM (inactive)
same,GI50,[51],> 100 µM (inactive)
same,GI50,[52],> 100 µM (inactive)
same,GI50,[53],> 100 µM (inactive)
same,GI50,[54],> 100 µM (inactive)
same,GI50,[55],> 100 µM (inactive)
same,GI50,[56],> 100 µM (inactive)
CC(=O)OCC1OC(n2c(C)cc(C)c(C#N)c2=S)C(OC(C)=O)C(OC(C)=O)C1OC(C)=O (configuration not stated),GI50,[1],> 100 µM (inactive)
same,GI50,[2],> 100 µM (inactive)
same,GI50,[3],> 100 µM (inactive)
same,GI50,[4],> 100 µM (inactive)
same,GI50,[5],> 100 µM (inactive)
same,GI50,[6],> 100 µM (inactive)
same,GI50,[7],> 100 µM (inactive)
same,GI50,[8],> 100 µM (inactive)
same,GI50,[9],> 100 µM (inactive)
same,GI50,[11],> 100 µM (inactive)
same,GI50,[12],> 100 µM (inactive)
same,GI50,[13],> 100 µM
same,GI50,[14],> 100 µM (inactive)
same,GI50,[15],> 100 µM (inactive)
same,GI50,[16],> 100 µM (inactive)
same,GI50,[17],> 100 µM (inactive)
same,GI50,[18],> 100 µM (inactive)
same,GI50,[19],> 100 µM (inactive)
same,GI50,[20],> 100 µM (inactive)
same,GI50,[21],> 100 µM (inactive)
same,GI50,[22],> 100 µM (inactive)
same,GI50,[57],> 100 µM (inactive)
same,GI50,[23],> 100 µM (inactive)
same,GI50,[24],> 100 µM (inactive)
same,GI50,[25],> 100 µM (inactive)
same,GI50,[26],> 100 µM (inactive)
same,GI50,[27],> 100 µM (inactive)
same,GI50,[28],> 100 µM (inactive)
same,GI50,[29],> 100 µM (inactive)
same,GI50,[30],> 100 µM (inactive)
same,GI50,[31],> 100 µM (inactive)
same,GI50,[32],> 100 µM (inactive)
same,GI50,[33],> 100 µM (inactive)
same,GI50,[34],> 100 µM (inactive)
same,GI50,[35],> 100 µM (inactive)
same,GI50,[36],> 100 µM (inactive)
same,GI50,[37],> 100 µM (inactive)
same,GI50,[38],> 100 µM (inactive)
same,GI50,[39],> 100 µM (inactive)
same,GI50,[40],> 100 µM (inactive)
same,GI50,[41],> 100 µM (inactive)
same,GI50,[42],> 100 µM (inactive)
same,GI50,[43],> 100 µM (inactive)
same,GI50,[44],> 100 µM (inactive)
same,GI50,[45],> 100 µM (inactive)
same,GI50,[46],> 100 µM (inactive)
same,GI50,[48],> 100 µM (inactive)
same,GI50,[58],> 100 µM (inactive)
same,GI50,[49],> 100 µM (inactive)
same,GI50,[50],> 100 µM (inactive)
same,GI50,[52],> 100 µM (inactive)
same,GI50,[53],> 100 µM (inactive)
same,GI50,[59],> 100 µM (inactive)
same,GI50,[54],> 100 µM (inactive)
same,GI50,[55],> 100 µM (inactive)
same,GI50,[56],> 100 µM (inactive)
